Test results taken from patent US9492471B2, “Methods of treating a disease or disorder associated with Bruton'S Tyrosine Kinase” (Celgene Avilomics Research, Inc., priority 2013, dated 2016).
Where two headings read alike, the source gives them in different places.

Legend:
Assay in all cases: HotSpot kinase profiling
Type in all cases: biochemical
FLT4/VEGFR3 = molecular target: T1, FLT4/VEGFR3 (Homo sapiens, UniProt P35916)
T1 construct: purchased Reaction Biology Corp
Method in brief: (§1)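 Radio-isotope P81 filtration format. Substrate + required cofactors in reaction buffer, kinase added, 2 h RT. Stop, wash with 0.1% phosphoric acid, detect. % inhibition vs DMSO; mean of duplicates where repeated.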

AXL = molecular target: T2, AXL (Homo sapiens, UniProt P30530)
T2 construct: purchased Reaction Biology Corp
T2 sequence (P30530 26-894): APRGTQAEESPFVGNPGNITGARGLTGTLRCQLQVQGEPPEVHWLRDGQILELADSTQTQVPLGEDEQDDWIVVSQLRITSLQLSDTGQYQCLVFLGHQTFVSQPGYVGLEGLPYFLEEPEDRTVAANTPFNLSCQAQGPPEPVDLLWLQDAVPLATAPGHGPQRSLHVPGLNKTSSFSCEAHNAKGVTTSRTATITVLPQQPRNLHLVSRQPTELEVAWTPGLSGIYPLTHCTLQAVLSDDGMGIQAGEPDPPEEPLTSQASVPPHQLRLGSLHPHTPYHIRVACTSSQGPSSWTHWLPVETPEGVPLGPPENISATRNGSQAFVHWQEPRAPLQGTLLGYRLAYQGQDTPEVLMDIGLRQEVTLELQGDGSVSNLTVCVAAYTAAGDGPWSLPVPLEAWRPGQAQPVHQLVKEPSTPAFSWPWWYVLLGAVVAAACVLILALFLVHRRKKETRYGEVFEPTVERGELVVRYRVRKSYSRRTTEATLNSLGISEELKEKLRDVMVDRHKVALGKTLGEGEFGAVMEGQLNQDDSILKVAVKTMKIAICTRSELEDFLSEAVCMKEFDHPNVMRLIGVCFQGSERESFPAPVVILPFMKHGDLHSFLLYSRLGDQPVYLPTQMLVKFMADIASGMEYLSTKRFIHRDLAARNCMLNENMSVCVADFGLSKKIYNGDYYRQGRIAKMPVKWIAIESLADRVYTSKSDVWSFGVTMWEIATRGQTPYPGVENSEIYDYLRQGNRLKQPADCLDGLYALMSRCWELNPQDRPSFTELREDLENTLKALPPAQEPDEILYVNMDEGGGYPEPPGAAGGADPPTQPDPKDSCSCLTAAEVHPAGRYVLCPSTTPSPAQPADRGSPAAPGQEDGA
Method in brief: as §1

PBK/TOPK = molecular target: T3, PBK/TOPK (Homo sapiens, UniProt Q96KB5)
T3 construct: purchased Reaction Biology Corp
T3 sequence (Q96KB5 1-322): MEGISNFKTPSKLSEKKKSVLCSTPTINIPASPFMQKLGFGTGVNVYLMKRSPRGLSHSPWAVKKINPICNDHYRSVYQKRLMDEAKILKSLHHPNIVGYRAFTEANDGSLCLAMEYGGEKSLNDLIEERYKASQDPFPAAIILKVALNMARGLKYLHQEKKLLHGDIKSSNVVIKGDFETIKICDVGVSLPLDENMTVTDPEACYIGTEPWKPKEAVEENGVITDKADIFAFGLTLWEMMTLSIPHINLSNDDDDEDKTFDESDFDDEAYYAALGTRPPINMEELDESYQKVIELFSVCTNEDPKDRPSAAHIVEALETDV
Method in brief: as §1

EPHB2 = molecular target: T4, EPHB2 (Homo sapiens, UniProt P29323)
T4 construct: purchased Reaction Biology Corp
T4 sequence (P29323 19-1055): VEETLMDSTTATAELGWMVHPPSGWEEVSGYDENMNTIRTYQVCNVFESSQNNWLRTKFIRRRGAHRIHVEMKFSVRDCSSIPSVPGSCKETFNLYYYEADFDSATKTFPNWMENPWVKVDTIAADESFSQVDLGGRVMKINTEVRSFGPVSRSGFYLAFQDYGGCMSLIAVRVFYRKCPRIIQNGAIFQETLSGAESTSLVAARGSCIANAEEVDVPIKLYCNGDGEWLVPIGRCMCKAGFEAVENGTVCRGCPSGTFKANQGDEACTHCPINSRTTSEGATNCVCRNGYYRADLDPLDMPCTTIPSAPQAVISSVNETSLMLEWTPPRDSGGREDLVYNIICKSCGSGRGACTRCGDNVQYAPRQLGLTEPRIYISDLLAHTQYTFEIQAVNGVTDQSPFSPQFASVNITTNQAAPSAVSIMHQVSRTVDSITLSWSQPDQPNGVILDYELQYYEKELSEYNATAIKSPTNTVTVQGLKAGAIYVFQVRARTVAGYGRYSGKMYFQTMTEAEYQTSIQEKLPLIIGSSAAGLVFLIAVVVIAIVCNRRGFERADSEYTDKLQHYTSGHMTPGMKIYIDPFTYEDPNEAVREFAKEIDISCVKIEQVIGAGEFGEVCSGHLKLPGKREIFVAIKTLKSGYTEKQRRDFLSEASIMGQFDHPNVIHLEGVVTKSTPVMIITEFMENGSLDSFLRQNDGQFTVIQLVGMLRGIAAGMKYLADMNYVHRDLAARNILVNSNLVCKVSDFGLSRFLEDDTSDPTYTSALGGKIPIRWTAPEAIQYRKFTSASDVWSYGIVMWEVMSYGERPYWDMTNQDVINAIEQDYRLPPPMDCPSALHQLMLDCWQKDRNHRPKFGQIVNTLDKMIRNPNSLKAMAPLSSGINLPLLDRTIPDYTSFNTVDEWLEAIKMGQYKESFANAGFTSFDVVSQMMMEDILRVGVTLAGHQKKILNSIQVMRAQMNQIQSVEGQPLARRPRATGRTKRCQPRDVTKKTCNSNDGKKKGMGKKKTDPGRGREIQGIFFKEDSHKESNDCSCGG
Method in brief: as §1

VRK2 = molecular target: T5, VRK2 (Homo sapiens, UniProt Q86Y07)
T5 construct: purchased Reaction Biology Corp
T5 sequence (Q86Y07 whole entry): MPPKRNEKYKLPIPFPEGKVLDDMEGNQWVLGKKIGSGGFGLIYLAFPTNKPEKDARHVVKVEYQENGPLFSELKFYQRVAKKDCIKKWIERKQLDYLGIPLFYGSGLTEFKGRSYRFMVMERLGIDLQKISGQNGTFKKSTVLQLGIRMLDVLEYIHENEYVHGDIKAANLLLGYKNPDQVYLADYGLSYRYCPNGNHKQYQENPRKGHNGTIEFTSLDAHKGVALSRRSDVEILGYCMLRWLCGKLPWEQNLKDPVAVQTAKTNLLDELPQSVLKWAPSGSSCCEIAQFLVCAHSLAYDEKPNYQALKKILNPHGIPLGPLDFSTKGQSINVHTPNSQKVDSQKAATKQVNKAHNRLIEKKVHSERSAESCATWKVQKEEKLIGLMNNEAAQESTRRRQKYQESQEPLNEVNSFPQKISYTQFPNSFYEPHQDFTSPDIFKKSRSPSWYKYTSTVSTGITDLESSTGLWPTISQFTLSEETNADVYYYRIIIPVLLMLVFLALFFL
Method in brief: as §1

[1] = read-out: % Enzyme Activity (relative to DMSO controls) Run 1
[2] = read-out: % Enzyme Activity (relative to DMSO controls) Run 2

T1 sequence (P35916 25-1363): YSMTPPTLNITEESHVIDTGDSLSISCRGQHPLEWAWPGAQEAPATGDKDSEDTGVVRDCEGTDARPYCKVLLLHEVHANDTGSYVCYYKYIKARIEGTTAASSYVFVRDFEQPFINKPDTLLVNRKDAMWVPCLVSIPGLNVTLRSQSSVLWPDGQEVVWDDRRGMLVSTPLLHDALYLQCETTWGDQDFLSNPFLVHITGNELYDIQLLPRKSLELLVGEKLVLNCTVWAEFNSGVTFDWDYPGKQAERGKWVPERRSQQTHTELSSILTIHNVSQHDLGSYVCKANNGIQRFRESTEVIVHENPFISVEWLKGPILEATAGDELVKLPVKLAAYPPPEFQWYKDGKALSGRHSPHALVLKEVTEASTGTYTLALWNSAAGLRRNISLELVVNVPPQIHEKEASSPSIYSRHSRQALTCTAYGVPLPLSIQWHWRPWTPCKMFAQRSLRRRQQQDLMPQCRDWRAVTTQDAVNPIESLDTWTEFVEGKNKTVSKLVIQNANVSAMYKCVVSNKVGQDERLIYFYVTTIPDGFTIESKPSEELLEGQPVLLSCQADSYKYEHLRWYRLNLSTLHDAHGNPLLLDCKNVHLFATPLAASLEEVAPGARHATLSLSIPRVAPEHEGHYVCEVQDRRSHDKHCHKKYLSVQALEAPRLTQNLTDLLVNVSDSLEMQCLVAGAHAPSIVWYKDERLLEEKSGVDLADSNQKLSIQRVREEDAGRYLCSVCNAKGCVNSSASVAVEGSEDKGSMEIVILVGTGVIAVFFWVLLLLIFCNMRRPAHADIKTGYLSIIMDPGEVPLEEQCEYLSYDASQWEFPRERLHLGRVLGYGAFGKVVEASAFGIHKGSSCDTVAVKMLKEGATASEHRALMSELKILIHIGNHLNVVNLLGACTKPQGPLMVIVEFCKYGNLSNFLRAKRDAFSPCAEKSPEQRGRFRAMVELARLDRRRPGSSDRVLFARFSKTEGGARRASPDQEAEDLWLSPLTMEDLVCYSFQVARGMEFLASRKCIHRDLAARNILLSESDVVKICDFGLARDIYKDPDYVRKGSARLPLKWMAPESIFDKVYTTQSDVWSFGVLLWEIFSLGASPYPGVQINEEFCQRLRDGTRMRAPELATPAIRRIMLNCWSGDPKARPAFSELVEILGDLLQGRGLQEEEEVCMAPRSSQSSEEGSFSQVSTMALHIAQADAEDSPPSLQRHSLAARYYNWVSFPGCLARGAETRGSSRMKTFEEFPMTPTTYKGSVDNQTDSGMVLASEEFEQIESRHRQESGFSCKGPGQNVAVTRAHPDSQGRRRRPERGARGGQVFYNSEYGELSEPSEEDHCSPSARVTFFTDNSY

Question: What does the source list for `C=CC(=O)Nc1cccc(Nc2nc(Nc3ccc(OCCOC)c(F)c3)ncc2F)c1` [Compound 2]?
Answer: inhibition at 3 µM (FLT4/VEGFR3): 56%; remaining activity at 3 µM (FLT4/VEGFR3; [1]): 43.8%; remaining activity at 3 µM (FLT4/VEGFR3; [2]): 44.2%; inhibition at 3 µM (AXL): 51.3%; remaining activity at 3 µM (AXL; [1]): 48.6%; remaining activity at 3 µM (AXL; [2]): 48.8%; inhibition at 3 µM (PBK/TOPK): 3.07%; remaining activity at 3 µM (PBK/TOPK; [1]): 98.6%; remaining activity at 3 µM (PBK/TOPK; [2]): 95.3%; inhibition at 3 µM (EPHB2): -5.45%; remaining activity at 3 µM (EPHB2; [1]): 104%; remaining activity at 3 µM (EPHB2; [2]): 107%; inhibition at 3 µM (VRK2): 5.06%; remaining activity at 3 µM (VRK2; [1]): 94%; remaining activity at 3 µM (VRK2; [2]): 95.9%
